Here are results for two compounds from US5877185A, “Synergistic compositions useful as anti-tumor agents” (priority 1995, dated 1999).

Molecules are shown by their SMILES.

For series [1], the system named is SIV 22803 (AZT-resistant). Nature of the series: AZT-resistant SIV propagation (syncytia formation), SIV 22803. In kind it is cell-based. To be noted: for Syncytia: BSO 0. The protocol:
CEM × 174 (3 × 10^5 /ml) were infected with equal doses o
SIVmac239 or virus isolates from SIVmac239infected rhesus macaques (MMU
23686, 22803). Three days postinfection, INO2 BA concentrations
ranging from 0 to 300 μM with or without BSO were added, and incubated
for an additional 3 days. Cell cultures were then examined for syncytia
formation. The number of syncytia in cell cultures was counted in
arbitration fields under 40× magnification and scored as follows: […]

For series [2], the system named is SIV-infected CEM ×174 cells. Nature of the series: viability of SIV-infected CEM ×174 cells, tetrazolium (MTT) assay. In kind it is cell-based, human. To be noted: day 10. An excerpt:
In both (A) and (B) the ordinate represents cell viability on day 10 of the assay and the abscissa represents the concentration of INO2 BA in the absence of BSO (FIG. 4A), and in the presence of BSO (FIG. 4B).
CEM ×174 cells (3×10^5 /ml) were infected with 3.75 TCID50 /ml (50% tissue culture infectious dosage per ml of cell suspension) stock solution of SIVmac239 or virus isolates from SIVmac239-infected rhesus macaques on day 0. Uniform infection of cells was ensured by the infection of one cell population only per virus preparation. Three days post-infection, the cells were distributed (500 μl/well) into individual wells of a 24-well plate. Fresh medium containing INO2 BA concentrations ranging from 0 to 300 μM and/or BSO concentrations ranging from 0 to 0.25 mM were added to establish final 1-ml reaction volumes, and the cultures were further incubated for 4 days. […] Cell viability and virus titers in the supernatant were determined on day 10 (3 days after the addition of new cells) by the tetrazolium (MTT) method of Hansen et al., J. Immunol. […]
The viability of infected and uninfected cell cultures was determined by the method of Hansen et al., J. Immunol. […] Following overnight incubation at 37° C., optical absorbance were measured at 570 nm using a microtiter plate reader (Molecular Devices Corp., Sunnyvale, Calif.).

The test system of another series is CEM-4. The experiment in a line: cytotoxicity of INO2 BA with and without BSO, CEM-4. It is filed as cell-based. To be noted: Homo sapiens. The method, then:
(§1) The concentration of BSO was 1 mM for all cell lines except HT 144, where the concentration was 0.25 mM. Cells were seeded in the recommended growth medium at a density of 1.5×10^4 cell/cm^2 into 2 cm^2 wells. Drugs were added simultaneously 4 hours after seeding, and incubation was continued for 48 hours at 37° C. in a 5% CO2 atmosphere. For assessment of drug effects cells were detached by trypsinization and counted in a hemacytometer.
(§2) Cell lines Nos. 1-4 were obtained from Dr. C. Benz, University of California, San Francisco. MDA 468 and MCF-7 human mammary cancer lines, MCF-7-B-ADR drug-resistant mammary cancer line, Du 145 drug-resistant human prostate cancer line, HT 144 human melanoma cell line, Hep-G2 human hepatocellular carcinoma line, and PC-12 rat pheochromocytoma line were obtained from the University of California Cell Culture Facility.

Another series relates to L 1210. Nature of the series: cytotoxicity of INO2 BA with and without BSO, L 1210. To be noted: Mus musculus, L1210, INO2 BA alone, 48 hours. In kind it is cell-based, murine. The protocol: as §1, §2
For series [3], the system named is HIV in intact human macrophages. To be noted: Kun et al., Abstract 422A; cited from earlier work.
In series [4] the test system is human immunodeficiency virus HIV-1. To be noted: human lymphocytes; cited from earlier work.
In series [5] the test system is HIV-1 (MN strain) virions. Nature of the series: zinc loss from treatment of HIV-1 virions with NOBA. It is filed as biochemical. The protocol: Experiments were performed to determine if NOBA is capable of ejecting zinc from intact virions. HIV-1 (MN strain) was produced, purified and concentrated as described in Bess et al., J. Virol. 66:840-847 (1992). The concentrated virus was diluted to 60 times that of culture fluid in TNE buffer (0.01M Tris-HCl, 0.1M NaCl, 1 mM EDTA, pH 7.2) and incubated with 3000 or 6000 μM NOBA at 37° C. The virus was then pelleted and washed with TNE buffer to remove weakly bound zinc. The quantity of zinc in the resulting viral pellets was determined as described in Bess et al., J. Virol. 66:840-847 (1992).

Series [6] concerns normal bone marrow progenitor cells. To be noted: tumoricidal concentrations; cited from earlier work.
The next series has as its system HIV-1 (LAV strain). The experiment in a line: in vitro anti-retroviral testing (HIV-1 inactivation) in human peripheral lymphocytes (PBL). In kind it is cell-based. The method, then:
Both 6-NOBP and NOBA were tested on viral growth of HIV-1 (LAV strain) in phytohemagglutinin-stimulated human peripheral lymphocytes (PBL). An HIV-1 stock having an infectivity titer of 100,000 TCID50 was incubated for 30 min. at 22° C. with either of the drugs. Control HIV samples, containing no drugs, were incubated in the same manner. […] At the end of this incubation cultures were assayed for productive infection by an immunoassay for HIV-1 antigens and by reverse transcriptase as described in McDougal et al., J. Immunol. Methods 76:171-183 (1985). Virus titers were expressed as percentile values (percent infected cultures) compared to the controls, containing HIV dilutions which were not preincubated with the C-nitroso drugs. In a separate series of experiments, HIV-1 dilutions and C-nitroso drugs (see upper abscissa) were not preincubated but were added simultaneously to lymphocytes in exactly the same concentrations as described previously (i.e., following preincubation) and viral growth monitored 9 days later.

As for `NC(=O)c1ccc(I)c([N+](=O)[O-])c1` [INO2 BA, 4-iodo-3-nitrobenzamide], the Syncytia entry is given as “++ (10-20)” in [1] (INO2 BA 25 μM); “++ (10-20)” in series [1] (INO2 BA 50 μM); “++ (10-20)” in series [1] (INO2 BA 100 μM); “- (0)” in series [1] (INO2 BA 200 μM); “- (0)” in series [1] (INO2 BA 300 μM). Moreover, the IC100 is greater than 100 µM in [1] (Simian immunodeficiency virus, 72 h, read-out: INO2 BA concentration abrogating cell fusion (syncytia)); 196 µM in the series on CEM-4 (CEM-4, 48 h, read-out: LD100); 256 µM in the series on L 1210 (read-out: LD100). Further, the “syncytia-blocking concentration of INO2 BA” value in series [1] (with 0.05 mM BSO) is 25 µM. Besides, the apparent cell viability entry in series [2] is “protected”. In addition, the IC50 stood at 80 µM in the series on CEM-4 (CEM-4, INO2 BA alone, 48 hours, read-out: I50) and 128 µM in the series on L 1210 (read-out: I50). The “inhibition of HIV replication” value in series [3] is recorded as “readily inhibited”.
For the compound `NC(=O)c1cccc(N=O)c1` [NOBA, 3-nitrosobenzamide], in [4], the “inhibition of HIV-1 infection” value is “inhibit infection”. Besides, the “Zinc Loss” value in series [5] (3,000 μM NOBA, 2 hr) was determined as 52%; in series [5] (6,000 μM NOBA, 4 hr), 83%. The “Zinc, NOBA-Treated Sample” value was determined as 0.11 µg/mL in series [5] (3,000 μM NOBA, 2 hr, control 0.21) and 0.04 µg/mL in series [5] (6,000 μM NOBA, 4 hr, control 0.24). Moreover, in [5] (3000 or 6000 μM NOBA), the “loss of viral proteins in the pellet” value is on record as “No significant loss”. For the same compound, in series [6], the “effect on normal bone marrow progenitor cells” value is “relatively harmless”. In the series with HIV-1 (LAV strain) (100 μM), the “TCID50 (calculated infectious titer after treatment)” value is 11 TCID50. The “decrease of relative amount of infectious virus available to cause 50% infected cultures” value in the series on HIV-1 (LAV strain) (30 min. at 22° C., FIG. 7A) is recorded as 4 log units. Besides, the log reduction at 100 µM with HIV-1 (LAV strain) (Human immunodeficiency virus 1, Lymphocyte, 0.5 h, 100 μM, of TCID50, read-out: Decrease) was 4.2. The compound also displayed an inhibition at 100 µM in the series with HIV-1 (LAV strain) (Human immunodeficiency virus 1, Lymphocyte, 100 μM) greater than 100%.
